In patent publication US5871779A, “Treatment of arthropathies with vanadate compounds or analogues thereof” (Mount Sinai Hospital Corporation, priority 1996, dated 1999):
Values joined by “and” are separate entries in the source; they are usually repeats but may differ in a detail not shown here. Identical values can stand only once.

How the values were obtained:
[1] = tested on: fos; assay: fos / c-fos mRNA expression in chondrocytes (Northern blot); assay type: cell-based, bovine; conditions: stimulus alone; H2 O2 30, 60 and 90 minutes; IL-1, PMA or AA (3 μM) 1 hour
Procedure: (§1) The cytokine interleukin 1 (IL 1) has been used to identify the intermediate second messengers which regulate the expression of fos and jun.
In order to elucidate this possibility, the effect of DPI on fos and jun mRNA levels induced by IL 1 was investigated. RNA from chondrocytes treated with IL 1 in the presence and absence of DPI were analyzed by Northern blot analysis using either fos or collagenase cDNA probes.
Since superoxides are rapidly converted to hydrogen peroxide in the cell by superoxide dismutase, whether hydrogen peroxide could mimic the effect of IL 1 in the induction of fos expression was investigated. RNA was extracted from chondrocytes (Kandel et al. supra) treated with H2 O2 for 30, 60 and 90 minutes and examined by Northern blot analysis using a fos cDNA probe.
Bovine articular chondrocytes were isolated and plated as previously described (Kandel R. A. et al. Biochim. Biophys. Acta. 1053, 130-134, 1990). […] The amount of ^3 H-AA liberated into the supernatant was determined. To measure PGE2 production, chondrocytes were incubated for 6 hours in Ham's F12 medium, either alone or with IL 1 or PMA. […] In order to examine the expression of c-fos and c-jun, chondrocytes were incubated for 1 hour in the presence of IL-1, PMA or AA (3 μM). Chondrocytes were washed in PBS and the total RNA extracted as previously described (Cruz. et al, 1991, Biochem. J. 277, 327-330). RNA samples were run on formaldehyde agarose gels and transferred to nylon membrane for northern analysis using cDNA probes for c-fos and c-jun.
The RNA was extracted and examined by Northern blot analysis using cDNA probes for c-fos and collagenase.

[2] = tested on: jun; assay: jun / c-jun mRNA expression in chondrocytes (Northern blot); assay type: cell-based, bovine; conditions: stimulus alone, 1 hour
From the text: as §1
Although IL 1 stimulated superoxide production, it was not known whether IL 1 induced fos and jun expression was dependent on the production of superoxides. In order to elucidate this possibility, the effect of DPI on fos and jun mRNA levels induced by IL 1 was investigated. RNA from chondrocytes treated with IL 1 in the presence and absence of DPI were analyzed by Northern blot analysis using either fos or collagenase cDNA probes. […] Similar data has been obtained for IL 1 induced jun expression. Furthermore, inhibition of fos and jun expression by DPI was sufficient to suppress IL 1 induced and constitutive collagenase expression.
The effect of orthovanadate and N-acetylcysteine on fos, jun and collagenase expression were examined. Bovine articular chondrocytes were isolated and plated as previously described (Kandel R. A. et al. Biochim. Biophys. Acta. 1053, 130-134, 1990). In order to determine the effect of orthovanadate on IL 1 and PMA (phorbol ester) induced responses, chondrocytes were incubated with orthovanadate (100 μM) for 2 hours before stimulation with IL 1 (10 ng/ml) or PMA ([…]). Collagenase production was determined by incubating chondrocytes for 24 hours with IL 1 or PMA and the cell conditioned medium was assayed for collagenase activity using an ELISA procedure as described previously (Kandel et al. supra). PLA2 activity was measured by incorporating ^3 H-arachidonic acid (^3 H-AA) into the cells and then incubating the cells with medium containing 1 mg/ml BSA, either alone or in the presence of IL 1 or PMA, for 10 min. as previously described (Conquer, J. A. […], Biochim. Biophys. Acta. 1134, 1-6). The amount of ^3 H-AA liberated into the supernatant was determined. […] The supernatant was analyzed by RIA using an antibody specific for PGE2 (Dr. S. A. Jones, Mount Sinai Hospital, Toronto, Canada). […]

[3] = body weight of mice, BEOV and N-acetylcysteine (Example 21); assay type: in vivo; parameters: Body weight / Body weight, Average: unit not given here; conditions: for Body weight: individual mice; for death of animal: mouse 5
Procedure: (§2) Forty mice were subcutaneously injected with 100 μl of MDAY-2D tumor cell suspension (8×10^6 /100 μl)on day 1. On day 6, the mice were randomly divided into […] groups and injected following drugs twice a day. The […] groups were as follows: Group 1: 100 μl of PBS; Group 2: 100 μl of 2% NAC(ip) and 0.1 mg BEOV in 100 μl BS; Group 3: 100 μl of 2% NAC(ip) and 0.25 mg BEOV in 100 μl PBS; and Group 4: 100 μl of 2% NAC(ip) and 0.5 mg BEOV in 100 μl PBS. On injection day 9, the mice were sacrificed and the tumors dissected.

[4] = tested on: proliferating chondrocytes; assay: viability / proliferation of proliferating chondrocytes (low cell density); assay type: cell-based; conditions: summary statement
Procedure: In order to compare the effect of orthovanadate on non-proliferating and proliferating chondrocytes, chondrocytes were plated at both high cell density (2×10^6 to 4×10^6 cells/per well on a six well plate) (nonproliferating) and at a lower cell density (5×10^5 to 1×10^6 cells/per well on a six well plate) (proliferating) and then maintained for 48 hours. The cells were then incubated in media (HAMS F12) containing 0-50 μM Orthovanadate for an additional 48 hours. The cells were harvested and the number of viable cells determined.

[5] = tested on: H460; assay: MTT cytotoxicity assay, H460; assay type: cell-based, human; conditions: H460, 72 hours
Procedure: (§3) The relative cytotoxicity of various compounds on tumor cell lines was investigated as follows. Cytotoxicity was measured by the MTT microculture tetrazolium colorimetric assay for all cell lines. The relative cytotoxicity of Na3 VO4 and VOSO4 was investigated using the following tumor cell lines: P388(WT) murine leukemia, P388 (ADR) murine leukemia, Lewis murine lung, MCF7 (WT) human breast, […] human lung, K562 human erythroleukemia, A431 human epidermal, LS180 human colon and SK-OV-3 human ovarian. The relative cytotoxicity of doxorubicin, Na3 VO4 and VOSO4 was investigated using the following tumor cell lines: P388(WT) murine leukemia, P388 (ADR) murine leukemia, MCF7(WT) human breast and MCF7 (ADR) human breast. The relative cytotoxicity of BMOV, BEOV and naglivan was investigated using the following tumor cell lines: P388(WT) murine leukemia, P388 (ADR) murine leukemia, Lewis murine lung, H460 human lung, K562 human erythroleukemia, and SK-OV-3 human ovarian.
(§4) The cells were plated (number of cells/well was different from cell line to cell depending on the dividing rate) in a 96-well microculture plate 24 hours prior to the delivery of the vanadium compounds. Serial concentrations of solutions of the test compounds (0.05-100 μM) were delivered to the corresponding wells. A blank column (without cells) and a control column (with cells without vanadium) were left. The cells were incubated for 72 hours continuously. An MTT solution was added to each well after this incubation period and the cells were incubated for 4 more hours for the completion of the dyeing process. The medium was removed find DMSO was added to each well. The absorbance of each well was read with a Titertek Multiskan (310C) spectrophotometer at 570 nm. The percentage of the absorbance of each vanadium concentration relative to the control calculated and the value of the 50% growth inhibition concentration (IC50) was obtained from the % control versus concentration plot. Each assay was repeated three times and the reported IC50 values were the mean of these three runs.

[6] = tested on: collagenase; assay: collagenase production by chondrocytes (ELISA); assay type: cell-based, bovine
Procedure: The effect of orthovanadate and N-acetylcysteine on fos, jun and collagenase expression were examined. Bovine articular chondrocytes were isolated and plated as previously described (Kandel R. A. et al. Biochim. Biophys. Acta. 1053, 130-134, 1990). In order to determine the effect of orthovanadate on IL 1 and PMA (phorbol ester) induced responses, chondrocytes were incubated with orthovanadate (100 μM) for 2 hours before stimulation with IL 1 (10 ng/ml) or PMA ([…]). Collagenase production was determined by incubating chondrocytes for 24 hours with IL 1 or PMA and the cell conditioned medium was assayed for collagenase activity using an ELISA procedure as described previously (Kandel et al. supra). PLA2 activity was measured by incorporating ^3 H-arachidonic acid (^3 H-AA) into the cells and then incubating the cells with medium containing 1 mg/ml BSA, either alone or in the presence of IL 1 or PMA, for 10 min. as previously described (Conquer, J. A. […], Biochim. Biophys. Acta. 1134, 1-6). The amount of ^3 H-AA liberated into the supernatant was determined. To measure PGE2 production, chondrocytes were incubated for 6 hours in Ham's F12 medium, either alone or with IL 1 or PMA. The supernatant was analyzed by RIA using an antibody specific for PGE2 (Dr. S. A. Jones, Mount Sinai Hospital, Toronto, Canada). In order to examine the expression of c-fos and c-jun, chondrocytes were incubated for 1 hour in the presence of IL-1, PMA or AA (3 μM). Chondrocytes were washed in PBS and the total RNA extracted as previously described (Cruz. et al, 1991, Biochem. J. 277, 327-330). RNA samples were run on formaldehyde agarose gels and transferred to nylon membrane for northern analysis using cDNA probes for c-fos and c-jun.

[7] = tested on: MDAY-2D tumor; assay: BEOV and N-acetylcysteine on tumor growth (Example 21); assay type: in vivo, mice; parameters: unit not given here; conditions: for Tumour weight: individual mice
Procedure: The effectiveness of BEOV in reducing tumor growth was investigated and the effective concentration required for inhibiting tumor growth was determined as follows.
as §2

[8] = tested on: SK-OV-3; assay: MTT cytotoxicity assay, SK-OV-3; assay type: cell-based, human; conditions: SK-OV-3, 72 hours
Procedure: as §3, §4

[9] = tested on: P388 (ADR); assay: MTT cytotoxicity assay, P388 (ADR); assay type: cell-based, murine; conditions: P388 (ADR), 72 hours; read-out: IC50 Value
Procedure: as §3, §4

[10] = tested on: K562; assay: MTT cytotoxicity assay, K562; assay type: cell-based, human; conditions: K562, 72 hours
Procedure: as §3
as §4, with “Serial concentrations of solutions of the test compounds (0.05-100 μM) were delivered to the corresponding wells.” left out

[11] = tested on: Lewis lung; assay: MTT cytotoxicity assay, Lewis lung; assay type: cell-based, murine; conditions: 72 hours
Procedure: as §3, §4

[12] = tested on: P388 (WT); assay: MTT cytotoxicity assay, P388 (WT); assay type: cell-based, murine; conditions: P388 (WT), 72 hours; read-out: IC50 Value
Procedure: as §3, §4

[13] = tested on: PGE2; assay: PGE2 production by chondrocytes (RIA); assay type: cell-based, bovine; conditions: stimulus alone, 6 hours
Procedure: (§5) The effect of orthovanadate and N-acetylcysteine on fos, jun and collagenase expression were examined. Bovine articular chondrocytes were isolated and plated as previously described (Kandel R. A. et al. Biochim. Biophys. Acta. 1053, 130-134, 1990). In order to determine the effect of orthovanadate on IL 1 and PMA (phorbol ester) induced responses, chondrocytes were incubated with orthovanadate (100 μM) for 2 hours before stimulation with IL 1 (10 ng/ml) or PMA ([…]). Collagenase production was determined by incubating chondrocytes for 24 hours with IL 1 or PMA and the cell conditioned medium was assayed for collagenase activity using an ELISA procedure as described previously (Kandel et al. supra). PLA2 activity was measured by incorporating ^3 H-arachidonic acid (^3 H-AA) into the cells and then incubating the cells with medium containing 1 mg/ml BSA, either alone or in the presence of IL 1 or PMA, for 10 min. as previously described (Conquer, J. A. […], Biochim. Biophys. Acta. 1134, 1-6). The amount of ^3 H-AA liberated into the supernatant was determined. To measure PGE2 production, chondrocytes were incubated for 6 hours in Ham's F12 medium, either alone or with IL 1 or PMA. The supernatant was analyzed by RIA using an antibody specific for PGE2 (Dr. S. A. Jones, Mount Sinai Hospital, Toronto, Canada). […]

[14] = tested on: PLA2; assay: release of 3H-arachidonic acid from chondrocytes (PLA2 activity); assay type: cell-based, bovine; conditions: stimulus alone, 10 min
Procedure: as §5

CCCCC/C=C\C/C=C\C/C=C\C/C=C\CCCC(=O)O [AA, arachidonic acid]
stimulation of fos / c-fos expression [1]: stimulated
stimulation of c-jun expression [2]: stimulated

CCc1occc(=O)c1[O][V](=[O])[O]c1c(CC)occc1=O [BEOV, bis(ethylmaltolato) oxovanadium]
Body weight, Average ([3]; 0.1 mg BEOV + 2% NAC): 16.5
Body weight ([3]; 0.1 mg BEOV + 2% NAC): 17.8 and 15.5 and 15.9 and 16.8
death of animal ([3]; 0.1 mg BEOV + 2% NAC): died
Body weight, Average ([3]; 0.25 mg BEOV + 2% NAC): 16.02
Body weight ([3]; 0.25 mg BEOV + 2% NAC): 15.9 and 15.7 and 16.9 and 15.4 and 16.2
Body weight, Average ([3]; 0.5 mg BEOV + 2% NAC): 15.25
Body weight ([3]; 0.5 mg BEOV + 2% NAC): 13.7 and 13.9 and 16 and 17.4
death of animal ([3]; 0.5 mg BEOV + 2% NAC): died
proliferation of cells, such as chondrocytes [4]: inhibit
IC50 [5]: 4.4 µM
production of metalloproteases, such as collagenase ([6]; summary statement): inhibit
Tumour weight, Average ([7]; 0.1 mg BEOV + 2% NAC): 0.82
Tumour weight ([7]; 0.1 mg BEOV twice a day + 2% NAC ip): 0.9 and 0.6 and 0.8 and 1.0
Tumour weight, Average ([7]; 0.25 mg BEOV + 2% NAC): 0.08
Tumour weight ([7]; 0.25 mg BEOV twice a day + 2% NAC ip): 0.28 and 0.0 and 0.12
Tumour weight, Average ([7]; 0.5 mg BEOV + 2% NAC): 0.03
Tumour weight ([7]; 0.5 mg BEOV twice a day + 2% NAC ip): 0.1 and 0.0
IC50 [8]: 2.6 µM
IC50 [9]: 39.8 µM
IC50 [10]: 374 µM
IC50 [11]: 97.4 µM
IC50 [12]: 82.6 µM

CCCCCCCCCCCCCC(=O)O[C@@H]1[C@@H](C)[C@@]2(O)[C@@H](C=C(CO)C[C@]3(O)C(=O)C(C)=C[C@@H]23)[C@@H]2C(C)(C)[C@]12OC(C)=O [PMA, reference compound]
stimulation of fos / c-fos expression [1]: stimulated
induction of PGE2 production [13]: induced
induction of collagenase production ([6]; stimulus alone, 24 hours): induced
stimulation of c-jun expression [2]: stimulated
induction of 3H-AA release [14]: induced
